The results in this text go back to ChEMBL document CHEMBL1141472, “Design, synthesis, and biological evaluation of 8-biarylquinolines: a novel class of PDE4 inhibitors” (Bioorg Med Chem Lett, 2008).

Holding throughout (settings): in vivo
A short description of data set [1]: (§1) Half life in rat. The format is ADME, organism-based.
Data set [2] can be described thus: Oral bioavailability in rat. It counts as ADME, organism-based.
Data set [3] is described as follows: Cmax in squirrel monkey at 10 mg/kg. It counts as ADME, organism-based, Saimiri sciureus. Further details: dose 10 mg/kg.
Data set [4] is filed under the species Rattus norvegicus. Described as §1. It counts as ADME, organism-based.
Data set [5] can be described thus: Cmax in squirrel monkey at 3 mg/kg. It counts as ADME, organism-based, Saimiri sciureus. Further details: dose 3 mg/kg.

In data set [1], `CC(C)(c1cc(-c2cccc(-c3ccc(CC(=O)O)cc3)c2)c2ncccc2c1)S(C)(=O)=O` showed a half-life of 0.3 h. Further, the bioavailability in data set [2] came out at 60%.

With `CC(C)(O)c1cc(-c2cccc(-c3cc(C(C)(C)S(C)(=O)=O)cc4cccnc34)c2)c[n+]([O-])c1`, the half-life in data set [1] was less than 1 h. Further, in data set [2], the bioavailability was 0%.

As for `CC(C)(CC(=O)O)c1ccc(-c2cccc(-c3cc(C(C)(C)S(C)(=O)=O)cc4cccnc34)c2)cc1`, the half-life in data set [1] was 2 h. For the same molecule, the bioavailability in data set [2] is 100%.

`CC(C)(c1cc(-c2cccc(-c3ccc(CCC(=O)O)cc3)c2)c2ncccc2c1)S(C)(=O)=O` showed a half-life in data set [1] of 1 h. Moreover, the bioavailability in data set [2] was found to be 24%.

The molecule `CC(C)(c1cc(-c2cccc(-c3ccc(CO)[n+]([O-])c3)c2)c2ncccc2c1)S(C)(=O)=O` showed a half-life in data set [1] of 1.7 h. Also, the bioavailability in data set [2] was 10%.

In data set [1], `Cc1ccc(-c2cccc(-c3cc(C(C)(C)S(C)(=O)=O)cc4cccnc34)c2)c[n+]1[O-]` gave a half-life of 1.2 h. Moreover, the bioavailability in data set [2] is 83%.

On to `CC(=O)Nc1ccc(-c2cccc(-c3cc(C(C)(C)S(C)(=O)=O)cc4cccnc34)c2)c[n+]1[O-]`, for which, in data set [1], the half-life was 0.2 h. In data set [2], this molecule yielded a bioavailability of 47%.

In data set [3], `Cc1noc(/C(=C/c2cccc(-c3cc(C(C)(C)S(C)(=O)=O)cc4cccnc34)c2)c2ccc(S(C)(=O)=O)cc2)n1` showed a Cmax of 3.8 µM.

Regarding `CC(C)(c1cc(-c2cccc(-c3ccc[n+]([O-])c3)c2)c2ncccc2c1)S(C)(=O)=O`, the half-life in data set [1] is 1.2 h. This molecule came in with a bioavailability in data set [2] of 76%.

For the molecule `CC(C)NC(=O)Nc1ccc(-c2cccc(-c3cc(C(C)(C)S(C)(=O)=O)cc4cccnc34)c2)c[n+]1[O-]`, the half-life in data set [1] was 0.7 h. In data set [2], this molecule returned a bioavailability of 11%.

The molecule `CC(C)(c1cc(-c2cccc(-c3ccc(C4CC4C(=O)O)cc3)c2)c2ncccc2c1)S(C)(=O)=O` (single isomer, unassigned) came in with a Cmax in data set [3] of 65 µM. Further, the half-life in data set [1] is 2 h. The molecule further showed a bioavailability in data set [2] of 100%.

For the molecule `CC(C)(c1cc(-c2cccc(-c3ccc(C(=O)NC4CC4)[n+]([O-])c3)c2)c2ncccc2c1)S(C)(=O)=O`, in data set [1], the half-life was 6.5 h. This molecule also registered a bioavailability in data set [2] of 100%.

Consider `CC(C)(c1cc(-c2cccc(-c3ccc(C4CC4C(=O)O)cc3)c2)c2ncccc2c1)S(C)(=O)=O` (single isomer, unassigned; enantiomer A), for which the t1/2 in data set [4] was 2 h.

In turn, `CC(C)(c1cc(-c2cccc(-c3ccc(C(=O)O)cc3)c2)c2ncccc2c1)S(C)(=O)=O` showed a half-life in data set [1] of 2 h. The bioavailability in data set [2] came to 54%.

Take `CC(C)(O)c1ccc(-c2cccc(-c3cc(C(C)(C)S(C)(=O)=O)cc4cccnc34)c2)c[n+]1[O-]`: the half-life in data set [1] was 1.5 h. Further, the bioavailability in data set [2] came to 100%. The same molecule had a peak concentration (Cmax) in data set [5] of 41 µM.

`CC(C)(c1cc(-c2cccc(-c3cc(C(=O)NC4CC4)c[n+]([O-])c3)c2)c2ncccc2c1)S(C)(=O)=O`: the half-life in data set [1] was less than 1 h. In data set [2], this molecule returned a bioavailability of 0%.
